Test results reported in ChEMBL document CHEMBL5154873, “Selective degradation of PARP2 by PROTACs via recruiting DCAF16 for triple-negative breast cancer” (Eur J Med Chem, 2022).
Activity calls are given as the source filed them. The rule behind the calls is not given here.

Tests used:
[1] = molecular target: Poly [ADP-ribose] polymerase 2 (Homo sapiens, UniProt Q9UGN5); assay: Inhibition of PARP2 (unknown origin)
[2] = tested on: MDA-MB-231; assay: In vivo antitumor activity against human MDA-MB-231 cells xenografted BALB/c mouse assessed as tumor growth inhibition at 100 mg/kg, IG measured after 21 days; format: functional; details: MDA-MB-231, po, 504 h, time 21 day, read-out: TGI
[3] = tested on: SW-620; assay: Antiproliferative activity against human SW-620 cells over expressing DCAF16 assessed as reduction in cell viability incubated for 5 to 10 days by MTT assay; format: functional, cell-based; details: time 5-10 day
[4] = Toxicity in BALB/c mouse xenografted with MDA-MB-231 cells assessed as pathological changes in kidney at 25 mg/kg, ip measured after 21 days by hematoxylin and eosin staining based assay; format: organism-based; details: in vivo, 504 h, time 21 day
[5] = molecular target: T1, DDB1- and CUL4-associated factor 16/Poly [ADP-ribose] polymerase 2 (Homo sapiens, UniProt Q9UGN5+Q9NXF7); assay: Protac activity at DCAF16 E3 ligase/PARP2 in human MDA-MB-231 cells assessed as induction of PARP2 degradation at 0.5 uM preincubated for 2 hrs followed by compound washout measured after 48 hrs by Western blot analysis; format: cell-based
Target sequence in this assay (Q9NXF7 whole entry, looked up): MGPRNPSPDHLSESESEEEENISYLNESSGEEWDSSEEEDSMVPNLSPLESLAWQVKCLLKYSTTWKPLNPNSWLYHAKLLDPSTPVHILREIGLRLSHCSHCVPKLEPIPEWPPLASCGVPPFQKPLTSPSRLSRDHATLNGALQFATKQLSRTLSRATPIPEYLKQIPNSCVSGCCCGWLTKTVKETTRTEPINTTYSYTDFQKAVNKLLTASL
Target sequence in this assay (Q9UGN5 whole entry, looked up): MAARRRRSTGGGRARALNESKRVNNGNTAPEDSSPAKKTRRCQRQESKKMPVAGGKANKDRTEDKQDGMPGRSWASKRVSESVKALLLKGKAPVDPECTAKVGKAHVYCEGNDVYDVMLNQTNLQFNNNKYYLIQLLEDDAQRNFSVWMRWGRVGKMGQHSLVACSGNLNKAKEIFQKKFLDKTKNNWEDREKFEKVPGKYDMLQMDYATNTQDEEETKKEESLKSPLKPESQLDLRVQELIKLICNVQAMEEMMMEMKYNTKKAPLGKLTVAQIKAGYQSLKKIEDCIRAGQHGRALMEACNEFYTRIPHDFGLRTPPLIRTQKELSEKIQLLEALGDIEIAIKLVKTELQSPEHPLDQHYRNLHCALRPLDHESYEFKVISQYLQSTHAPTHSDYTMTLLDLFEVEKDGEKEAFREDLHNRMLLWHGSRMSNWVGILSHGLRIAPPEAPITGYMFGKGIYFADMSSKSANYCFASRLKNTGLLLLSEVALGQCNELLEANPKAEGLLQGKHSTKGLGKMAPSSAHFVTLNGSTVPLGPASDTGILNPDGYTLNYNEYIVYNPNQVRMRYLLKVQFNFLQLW

[6] = Toxicity in BALB/c mouse xenografted with MDA-MB-231 cells assessed as mortality at 100 mg/kg, IG measured after 21 days; format: organism-based; details: in vivo, po, 504 h, time 21 day
[7] = molecular target: Poly [ADP-ribose] polymerase 1 (Homo sapiens, UniProt P09874); assay: Inhibition of PARP1 (unknown origin)
Poly [ADP-ribose] polymerase 1, sequence (P09874 whole entry): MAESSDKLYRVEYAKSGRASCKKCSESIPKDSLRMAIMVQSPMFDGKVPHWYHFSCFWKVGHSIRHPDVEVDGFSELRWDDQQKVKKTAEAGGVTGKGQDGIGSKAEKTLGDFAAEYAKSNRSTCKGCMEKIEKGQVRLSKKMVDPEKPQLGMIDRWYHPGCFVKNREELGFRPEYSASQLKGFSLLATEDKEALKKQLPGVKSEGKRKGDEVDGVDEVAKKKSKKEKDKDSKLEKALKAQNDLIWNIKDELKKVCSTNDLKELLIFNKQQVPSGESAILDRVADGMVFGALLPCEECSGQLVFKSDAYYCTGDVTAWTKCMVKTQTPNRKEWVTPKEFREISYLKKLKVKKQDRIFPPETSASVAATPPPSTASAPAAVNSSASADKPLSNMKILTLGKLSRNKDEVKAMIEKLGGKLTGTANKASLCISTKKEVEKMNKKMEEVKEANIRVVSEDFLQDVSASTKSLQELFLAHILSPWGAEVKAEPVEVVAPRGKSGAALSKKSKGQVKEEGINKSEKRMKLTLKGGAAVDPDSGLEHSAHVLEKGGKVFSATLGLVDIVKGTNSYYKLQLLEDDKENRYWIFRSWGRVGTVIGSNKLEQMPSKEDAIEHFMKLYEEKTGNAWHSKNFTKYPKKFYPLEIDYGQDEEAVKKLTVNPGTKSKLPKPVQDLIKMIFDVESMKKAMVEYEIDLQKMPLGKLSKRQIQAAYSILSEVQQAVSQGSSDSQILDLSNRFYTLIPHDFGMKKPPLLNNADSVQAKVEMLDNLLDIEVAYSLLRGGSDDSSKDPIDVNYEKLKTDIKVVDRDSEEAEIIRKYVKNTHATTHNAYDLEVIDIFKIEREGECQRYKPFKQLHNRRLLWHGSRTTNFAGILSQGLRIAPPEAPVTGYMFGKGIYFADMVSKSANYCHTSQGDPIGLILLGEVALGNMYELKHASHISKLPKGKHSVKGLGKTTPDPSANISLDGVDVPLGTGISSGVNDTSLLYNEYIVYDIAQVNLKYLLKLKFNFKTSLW

[8] = tested on: MDA-MB-436; assay: Antiproliferative activity against human BRCA1 -/- MDA-MB-436 cells assessed as reduction in cell viability incubated for 5 to 10 days by MTT assay; format: functional, cell-based
[9] = tested on: MDA-MB-436; assay: Induction of cell cycle arrest in human (BRAC1-/-) MDA-MB-436 cells assessed as accumulation at G2/M phase measured after 48 hrs by flow cytometry analysis; format: functional, cell-based; details: dose 0.312-2.5 µM, DDE = dose-dependent effect
[10] = Toxicity in BALB/c mouse xenografted with MDA-MB-231 cells assessed as pathological changes in lung at 25 mg/kg, ip measured after 21 days by hematoxylin and eosin staining based assay; format: organism-based; details: in vivo, 504 h, time 21 day
[11] = Toxicity in BALB/c mouse xenografted with MDA-MB-231 cells assessed as morbidity at 100 mg/kg, IG measured after 21 days; format: organism-based; details: in vivo, po, 504 h, time 21 day
[12] = molecular target: T1, DDB1- and CUL4-associated factor 16/Poly [ADP-ribose] polymerase 2; assay: Protac activity at DCAF16 E3 ligase/PARP2 in human MDA-MB-231 cells assessed as induction of PARP2 degradation measured after 24 hrs by Western blot analysis; format: cell-based
Target sequence in this assay (Q9UGN5 whole entry): as the sequence (Q9UGN5 whole entry, looked up) above
Target sequence in this assay (Q9NXF7 whole entry): as the sequence (Q9NXF7 whole entry, looked up) above

[13] = molecular target: T1, DDB1- and CUL4-associated factor 16/Poly [ADP-ribose] polymerase 2; assay: Protac activity at DCAF16 E3 ligase/PARP2 in human MDA-MB-231 cells assessed as induction of PARP2 degradation in nucleus at 0.5 uM measured after 24 hrs by DAPI staining based immunofluorescence microscopy; format: cell-based
Target sequence in this assay (Q9NXF7 whole entry, looked up): as above
Target sequence in this assay (Q9UGN5 whole entry, looked up): as the sequence (Q9UGN5 whole entry, looked up) above

[14] = tested on: MDA-MB-231; assay: Induction of apoptosis in human wild type MDA-MB-231 cells at 1.25 uM measured after 48 hrs by Annexin V-FITC/PI staining based flow cytometry method; format: functional
[15] = Toxicity in BALB/c mouse xenografted with MDA-MB-231 cells assessed as pathological changes in liver at 25 mg/kg, ip measured after 21 days by hematoxylin and eosin staining based assay; format: organism-based; details: in vivo, 504 h, time 21 day
[16] = molecular target: T1, DDB1- and CUL4-associated factor 16/Poly [ADP-ribose] polymerase 2; assay: Protac activity at DCAF16 E3 ligase/PARP2 in human MDA-MB-231 cells assessed as induction of PARP2 degradation at 0.5 uM measured after 8 hrs by Western blot analysis; format: cell-based
Target sequence in this assay (Q9NXF7 whole entry, looked up): as the sequence (Q9NXF7 whole entry, looked up) above
Target sequence in this assay (Q9UGN5 whole entry, looked up): as the sequence (Q9UGN5 whole entry, looked up) above

[17] = tested on: MDA-MB-231; assay: Antitumor activity against human MDA-MB-231 cells xenografted BALB/c mouse assessed as reduction in tumor weight at 25 mg/kg, ip measured after 21 days; format: functional, organism-based; details: time 21.0 day
[18] = tested on: CAPAN-1; assay: Antiproliferative activity against human BRCA2 -/- CAPAN-1 cells assessed as reduction in cell viability incubated for 5 to 10 days by MTT assay; format: functional, cell-based
[19] = tested on: L02; assay: Cytotoxicity against human L02 cells; format: toxicity, cell-based
[20] = molecular target: T1, DDB1- and CUL4-associated factor 16/Poly [ADP-ribose] polymerase 2; assay: Protac activity at DCAF16 E3 ligase/PARP2 in human MDA-MB-231 cells assessed as induction of PARP2 degradation at 1 uM measured after 24 hrs by Western blot analysis; format: cell-based
Target sequence in this assay (Q9NXF7 whole entry, looked up): as the sequence (Q9NXF7 whole entry, looked up) above
Target sequence in this assay (Q9UGN5 whole entry, looked up): as the sequence (Q9UGN5 whole entry, looked up) above

[21] = tested on: MDA-MB-468; assay: Potency index, ratio of IC50 of Olaparib to IC50 of test compound antiproliferative activity against human PTEN -/- MDA-MB-468 cells assessed as reduction in cell viability incubated for 5 to 10 days by MTT assay; format: functional; details: time 5-10 day
[22] = tested on: MDA-MB-231; assay: In vivo antitumor activity against human MDA-MB-231 cells xenografted BALB/c mouse assessed as tumor growth inhibition at 25 mg/kg, ip measured after 21 days; format: functional; details: MDA-MB-231, 504 h, time 21 day, read-out: TGI
[23] = tested on: MDA-MB-231; assay: Induction of cell cycle arrest in human MDA-MB-231 cells assessed as accumulation at G2/M phase measured after 24 hrs by flow cytometry analysis; format: functional, cell-based; details: dose 0.156-1.25 µM, DDE = dose-dependent effect
[24] = Toxicity in BALB/c mouse xenografted with MDA-MB-231 cells assessed as morbidity at 12.5 to 25 mg/kg, ip measured after 21 days; format: organism-based; details: in vivo, 504 h, dose 12.5-25 mg/kg, time 21 day
[25] = tested on: HepG2; assay: Antiproliferative activity against human HepG2 cells over expressing DCAF16 assessed as reduction in cell viability incubated for 5 to 10 days by MTT assay; format: functional, cell-based; details: time 5-10 day
[26] = Toxicity in BALB/c mouse xenografted with MDA-MB-231 cells assessed as change in body weight at 100 mg/kg, IG measured after 21 days; format: organism-based; details: in vivo, po, 504 h, time 21 day
[27] = molecular target: T1, DDB1- and CUL4-associated factor 16/Poly [ADP-ribose] polymerase 2; assay: Protac activity at DCAF16 E3 ligase/PARP2 in human MDA-MB-231 cells assessed as maximum degradation of PARP2 measured after 24 hrs by Western blot analysis relative to control; format: cell-based
Target sequence in this assay (Q9NXF7 whole entry, looked up): as the sequence (Q9NXF7 whole entry, looked up) above
Target sequence in this assay (Q9UGN5 whole entry, looked up): as the sequence (Q9UGN5 whole entry, looked up) above

[28] = tested on: MDA-MB-468; assay: Antiproliferative activity against human PTEN -/- MDA-MB-468 cells assessed as reduction in cell viability incubated for 5 to 10 days by MTT assay; format: functional, cell-based
[29] = tested on: HeLa; assay: Antiproliferative activity against human HeLa cells over expressing DCAF16 assessed as reduction in cell viability incubated for 5 to 10 days by MTT assay; format: functional, cell-based; details: time 5-10 day
[30] = tested on: NCI-H2228; assay: Antiproliferative activity against human H2228 cells over expressing DCAF16 assessed as reduction in cell viability incubated for 5 to 10 days by MTT assay; format: functional, cell-based; details: time 5-10 day
[31] = Toxicity in BALB/c mouse xenografted with MDA-MB-231 cells assessed as change in body weight at 12.5 to 25 mg/kg, ip measured after 21 days; format: organism-based; details: in vivo, 504 h, dose 12.5-25 mg/kg, time 21 day
[32] = tested on: MDA-MB-231; assay: Antiproliferative activity against wild type human MDA-MB-231 cells assessed as reduction in cell viability incubated for 5 to 10 days by MTT assay; format: functional, cell-based
[33] = tested on: SK-OV-3; assay: Antiproliferative activity against human SK-OV-3 cells over expressing DCAF16 assessed as reduction in cell viability incubated for 5 to 10 days by MTT assay; format: functional, cell-based; details: time 5-10 day
[34] = tested on: MDA-MB-231; assay: Potency index, ratio of IC50 of Olaparib to IC50 of test compound antiproliferative activity against wild type human MDA-MB-231 cells assessed as reduction in cell viability incubated for 5 to 10 days by MTT assay; format: functional; details: time 5-10 day
[35] = tested on: MDA-MB-231; assay: In vivo antitumor activity against human MDA-MB-231 cells xenografted BALB/c mouse assessed as tumor growth inhibition at 12.5 mg/kg, ip measured after 21 days; format: functional; details: MDA-MB-231, 504 h, time 21 day, read-out: TGI
[36] = Toxicity in BALB/c mouse xenografted with MDA-MB-231 cells assessed as pathological changes in spleen at 25 mg/kg, ip measured after 21 days by hematoxylin and eosin staining based assay; format: organism-based; details: in vivo, 504 h, time 21 day
[37] = tested on: MV4-11; assay: Antiproliferative activity against human MV4-11 cells over expressing DCAF16 assessed as reduction in cell viability incubated for 5 to 10 days by MTT assay; format: functional, cell-based; details: time 5-10 day
[38] = Toxicity in BALB/c mouse xenografted with MDA-MB-231 cells assessed as pathological changes in heart at 25 mg/kg, ip measured after 21 days by hematoxylin and eosin staining based assay; format: organism-based; details: in vivo, 504 h, time 21 day
[39] = Toxicity in BALB/c mouse xenografted with MDA-MB-231 cells assessed as mortality at 12.5 to 25 mg/kg, ip measured after 21 days; format: organism-based; details: in vivo, 504 h, dose 12.5-25 mg/kg, time 21 day
[40] = tested on: MDA-MB-231; assay: Inhibition of colony formation in human MDA-MB-231 cells measured after 14 days by crystal violet staining based analysis; format: functional, cell-based; details: dose 0.312-5 µM, time 14.0 day, DDE = dose-dependent effect
[41] = tested on: NCI-H3122; assay: Antiproliferative activity against human H3122 cells over expressing DCAF16 assessed as reduction in cell viability incubated for 5 to 10 days by MTT assay; format: functional, cell-based; details: time 5-10 day

Poly [ADP-ribose] polymerase 2, sequence (Q9UGN5 whole entry): as the sequence (Q9UGN5 whole entry, looked up) above

O=C(COc1ccc2c(c1)CCCN2C(=O)CCl)NCCCCCCCCCC(=O)N1CCN(C(=O)c2cc(Cc3n[nH]c(=O)c4ccccc34)ccc2F)CC1
IC50 [1]: 0.32 nM | inhibition in vivo at 100 mg/kg [2]: 63.5% | inhibition [3]: Active | Activity [4]: Non-Toxic | Activity [5]: Active | Activity [6]: Non-Toxic | IC50 [7]: 2.74 nM | IC50 [8]: 26 nM | Activity [9]: Dde | Activity [10]: Non-Toxic | Activity [11]: Non-Toxic | DC50 [12]: 2000 nM | Activity [13]: Active | Activity [14]: 20% | Activity [15]: Non-Toxic | Activity [16]: Active | Activity [17]: Active | IC50 [18]: 61 nM | Activity [19]: Non-Toxic | Activity [20]: Active | Ratio IC50 [21]: 6 | inhibition in vivo at 25 mg/kg [22]: 98.3% | Activity [23]: Dde | Activity [24]: Non-Toxic | inhibition [25]: Active | Activity [26]: Non-Toxic | Activity [27]: > 92% | IC50 [28]: 690 nM | inhibition [29]: Active | inhibition [30]: Active | Activity [31]: Non-Toxic | IC50 [32]: 530 nM | inhibition [33]: Active | Ratio IC50 [34]: 6 | inhibition in vivo at 12.5 mg/kg [35]: 82.9% | Activity [36]: Non-Toxic | inhibition [37]: Active | Activity [38]: Non-Toxic | Activity [39]: Non-Toxic | inhibition [40]: Dde | inhibition [41]: Active

O=C(c1cc(Cc2n[nH]c(=O)c3ccccc23)ccc1F)N1CCN(C(=O)C2CC2)CC1 [OLAPARIB]
inhibition in vivo at 100 mg/kg [2]: 57.8% | Activity [9]: Dde | Activity [23]: Dde
